*1 amine or outer side, *2 acyl side, *3 side chain or, on linkers, in order; H or OH if unused. [ ]: non-standard residue; d: D form. The star is where a group is joined. Cys(Acm) = CC(=O)NCSC[C@H](N[*:1])C(=O)[*:2]; Phe(4-F) = N[C@@H](Cc1ccc(F)cc1)C(=O)O; 2Nal = N[C@@H](Cc1ccc2ccccc2c1)C(=O)O; Nle = CCCC[C@H](N)C(=O)O; Orn = NCCC[C@H](N)C(=O)O; Acm = CC(=O)NC*
Assays:
[1] = system: guinea pig tracheal smooth muscle; assay: Tracheal relaxant activity of VIP analogs on isolated guinea pig tracheal rings; format: cell-based; conditions: cumulative concentration response; responses as % of maximum response to VIP (10^-6 M=100%); at least three tissues pooled; linear regression
Protocol: The relaxant activity of the VIP analogs was studied in a model utilizing guinea pig trachea. [Wasserman, M. A. et al., in Vasoactive Intestinal Peptide, S. I. Said, ed., Raven Press, N.Y. 1982, pp 177-184]; All tissues were taken from male albino guinea pig weighing 400-600 g, anesthesized with urethane (2 g/kg, i.p.). After exanguination, the trachea were removed and divided into four ring segments (3 mm length). Each ring was suspended by 30 gauge stainless steel wires in a 10 mL jacketed tissue bath and attached via 4-0 silk thread to a Grass force displacement transducer (model FT03C, Grass Instruments Co., Quincy, Ma), for isometric recording of tension. The smooth muscle was bathed in modified Krebs solution of the following composition: NaCl, 120 mM; KCl, 4.7 mM; CaCl2, 2.5 mM; MgSO.4 7H2 O, 1.2 mM; NaHCO3, 25 mM; K2 HPO4 monobasic, 1.2 mM; and dextrose, 10 mM. Tissue baths were maintained at 37° C. and constantly bubbled with 95% O2 and 5% CO2. Responses were recorded on an 8 channel and a 4 channel Hewlett-Packard (model 7702B and 7754A, respectively) recorder (Hewlett-Packard, Paramus, N.J.). […] Frequent readjustments of tension were required during the 60 minute stabilization period which followed. Tissues were rinsed at 15 minute intervals.
Cumulative concentration response curves were obtained for each tissue by successive […] increases in the bath concentration of VIP or VIP analogs according to the method of VanRossum [Arch. Int. Pharmacodyn., 143, 299-330 (1963)]. Only one cumulative dose response curve was obtained on a single tissue. To minimize variability between tissues, relaxant responses were expressed as a percentage of the maximum response obtained to VIP (10^-6 M=100%) added at the end of each concentration response experiment. Responses obtained from at least three tissues were pooled and EC50 values were determined by linear regression.

guinea pigs = assay: In vivo bronchodilator activity by tracheal instillation against histamine-induced bronchoconstriction; design: species or system guinea pig; conditions: 100 μl, anesthetized male Hartley guinea pigs, histamine challenge 50 μg/kg i.v., inhibition of tracheal pressure increase
Protocol: The in vivo bronchodilator activity of VIP analogs in guinea pigs was assessed by the tracheal instillation route of administration. This technique utilized male guinea pigs (Hartley strain, Charles River) weighing 400-600 g. Animals were anesthetized with urethane (2 g/kg) intraperitoneally and a polyethylene cannula was inserted into the jugular vein for intravenous drug administration.
The animals were tracheotomized and dosing solutions of distilled water or test compound dissolved in distilled water were administered into the trachea, approximately three-quarter the distance to the carina with a pipette. The concentration of the dosing solution was adjusted to deliver a constant volume of 100 μl. The animals were placed supine for one minute to aid drug delivery to the lung. One minute later, spontaneous breathing was arrested with succinylcholine chloride (1.2 mg/kg) administered intravenously, and the animals were ventilized with a Harvard Model 680 small animal respirator set at 40 breaths/min and 4.0 cm^3 stoke volume. The animals were challenged with a maximal constrictory dose of histamine (50 μg/kg, i.v.) and tracheal pressure (cm of water) was recorded from a Statham pressure transducer (P 32 AA).
The change in tracheal pressure was averaged for at least 3 control and 3 drug-treated animals and percent inhibition was calculated. The relative potency of compounds administered by the instillation route was determined by administering various doses of test compound and calculating the median inhibitory dose (ID50 value). The ID50 was determined from log dose-reasons curves generated by at least 3 doses that caused inhibitory effects between 10% and 90%. The correlation coefficient for the regression line of each antagonist was always greater than 0.95.
For determination of the time course of inhibition for various compounds, the time between administration of compound and challenge with histamine was varied. The time course of activity was calculated as the time when inhibition decreased to 40%.

| Substance | EC50 [1] [nM] | Bronchodilator activity in guinea pigs, ED50 (guinea pigs) [µg] |
| --- | --- | --- |
| Ac--[2-Nal^10, Lys^12, Nle^17, Ala^19, Val^26, Thr^28, Gly^29,30, Met^31 ]--VIP (Ac-HSDAVFTDN[2Nal]TKLRKQ[Nle]AAKKYLNSVLTGGM-NH2; SMILES CCCC[C@H](NC(=O)[C@H](CCC(N)=O)NC(=O)[C@H](CCCCN)NC(=O)[C@H](CCCNC(=N)N)NC(=O)[C@H](CC(C)C)NC(=O)[C@H](CCCCN)NC(=O)[C@@H](NC(=O)[C@H](Cc1ccc2ccccc2c1)NC(=O)[C@H](CC(N)=O)NC(=O)[C@H](CC(=O)O)NC(=O)[C@@H](NC(=O)[C@H](Cc1ccccc1)NC(=O)[C@@H](NC(=O)[C@H](C)NC(=O)[C@H](CC(=O)O)NC(=O)[C@H](CO)NC(=O)[C@H](Cc1c[nH]cn1)NC(C)=O)C(C)C)[C@@H](C)O)[C@@H](C)O)C(=O)N[C@@H](C)C(=O)N[C@@H](C)C(=O)N[C@@H](CCCCN)C(=O)N[C@@H](CCCCN)C(=O)N[C@@H](Cc1ccc(O)cc1)C(=O)N[C@@H](CC(C)C)C(=O)N[C@@H](CC(N)=O)C(=O)N[C@@H](CO)C(=O)N[C@H](C(=O)N[C@@H](CC(C)C)C(=O)N[C@H](C(=O)NCC(=O)NCC(=O)N[C@@H](CCSC)C(N)=O)[C@@H](C)O)C(C)C) [Ac--(SEQ ID NO: 18)--NH2] | 0.24 | 0.35 |
| Ac--[Ala^2, Glu^8, Lys^12, Nle^17, Ala^19, Val^26, Thr^28, Ala^29-31 ]--VIP (Ac-HADAVFTENYTKLRKQ[Nle]AAKKYLNSVLTAAA-NH2; SMILES CCCC[C@H](NC(=O)[C@H](CCC(N)=O)NC(=O)[C@H](CCCCN)NC(=O)[C@H](CCCNC(=N)N)NC(=O)[C@H](CC(C)C)NC(=O)[C@H](CCCCN)NC(=O)[C@@H](NC(=O)[C@H](Cc1ccc(O)cc1)NC(=O)[C@H](CC(N)=O)NC(=O)[C@H](CCC(=O)O)NC(=O)[C@@H](NC(=O)[C@H](Cc1ccccc1)NC(=O)[C@@H](NC(=O)[C@H](C)NC(=O)[C@H](CC(=O)O)NC(=O)[C@H](C)NC(=O)[C@H](Cc1c[nH]cn1)NC(C)=O)C(C)C)[C@@H](C)O)[C@@H](C)O)C(=O)N[C@@H](C)C(=O)N[C@@H](C)C(=O)N[C@@H](CCCCN)C(=O)N[C@@H](CCCCN)C(=O)N[C@@H](Cc1ccc(O)cc1)C(=O)N[C@@H](CC(C)C)C(=O)N[C@@H](CC(N)=O)C(=O)N[C@@H](CO)C(=O)N[C@H](C(=O)N[C@@H](CC(C)C)C(=O)N[C@H](C(=O)N[C@@H](C)C(=O)N[C@@H](C)C(=O)N[C@@H](C)C(N)=O)[C@@H](C)O)C(C)C) [Ac--(SEQ ID NO: 19)--NH2] | 0.23 | 0.47 |
| Ac--[Ala^2, Lys^12, Nle^17, Ala^25, Leu^26, Lys^27,28, Gly^29,30, Thr^31 ]--VIP (Ac-HADAVFTDNYTKLRKQ[Nle]AVKKYLNALKKGGT-NH2; SMILES CCCC[C@H](NC(=O)[C@H](CCC(N)=O)NC(=O)[C@H](CCCCN)NC(=O)[C@H](CCCNC(=N)N)NC(=O)[C@H](CC(C)C)NC(=O)[C@H](CCCCN)NC(=O)[C@@H](NC(=O)[C@H](Cc1ccc(O)cc1)NC(=O)[C@H](CC(N)=O)NC(=O)[C@H](CC(=O)O)NC(=O)[C@@H](NC(=O)[C@H](Cc1ccccc1)NC(=O)[C@@H](NC(=O)[C@H](C)NC(=O)[C@H](CC(=O)O)NC(=O)[C@H](C)NC(=O)[C@H](Cc1c[nH]cn1)NC(C)=O)C(C)C)[C@@H](C)O)[C@@H](C)O)C(=O)N[C@@H](C)C(=O)N[C@H](C(=O)N[C@@H](CCCCN)C(=O)N[C@@H](CCCCN)C(=O)N[C@@H](Cc1ccc(O)cc1)C(=O)N[C@@H](CC(C)C)C(=O)N[C@@H](CC(N)=O)C(=O)N[C@@H](C)C(=O)N[C@@H](CC(C)C)C(=O)N[C@@H](CCCCN)C(=O)N[C@@H](CCCCN)C(=O)NCC(=O)NCC(=O)N[C@H](C(N)=O)[C@@H](C)O)C(C)C) [Ac--(SEQ ID NO: 20)--NH2] | 0.44 | 0.05 |
| Ac--[Glu^8, Lys^12, Nle^17, Val^26, Thr^28, Gly^29,30, Met^31 ]--VIP (Ac-HSDAVFTENYTKLRKQ[Nle]AVKKYLNSVLTGGM-NH2; SMILES CCCC[C@H](NC(=O)[C@H](CCC(N)=O)NC(=O)[C@H](CCCCN)NC(=O)[C@H](CCCNC(=N)N)NC(=O)[C@H](CC(C)C)NC(=O)[C@H](CCCCN)NC(=O)[C@@H](NC(=O)[C@H](Cc1ccc(O)cc1)NC(=O)[C@H](CC(N)=O)NC(=O)[C@H](CCC(=O)O)NC(=O)[C@@H](NC(=O)[C@H](Cc1ccccc1)NC(=O)[C@@H](NC(=O)[C@H](C)NC(=O)[C@H](CC(=O)O)NC(=O)[C@H](CO)NC(=O)[C@H](Cc1c[nH]cn1)NC(C)=O)C(C)C)[C@@H](C)O)[C@@H](C)O)C(=O)N[C@@H](C)C(=O)N[C@H](C(=O)N[C@@H](CCCCN)C(=O)N[C@@H](CCCCN)C(=O)N[C@@H](Cc1ccc(O)cc1)C(=O)N[C@@H](CC(C)C)C(=O)N[C@@H](CC(N)=O)C(=O)N[C@@H](CO)C(=O)N[C@H](C(=O)N[C@@H](CC(C)C)C(=O)N[C@H](C(=O)NCC(=O)NCC(=O)N[C@@H](CCSC)C(N)=O)[C@@H](C)O)C(C)C)C(C)C) [Ac--(SEQ ID NO: 9)--NH2] |  | 1.7 |
| Ac--[Leu^5, Orn^12, Ala^17,19, Thr^25, Val^26, Thr^28, Gly^29,30, Cys(Acm)^31 ]--VIP (Ac-HSDALFTDNYT[Orn]LRKQAAAKYLNSTVNTGGC(Acm)-NH2; SMILES CC(=O)NCSC[C@H](NC(=O)CNC(=O)CNC(=O)[C@@H](NC(=O)[C@H](CC(N)=O)NC(=O)[C@@H](NC(=O)[C@@H](NC(=O)[C@H](CO)NC(=O)[C@H](CC(N)=O)NC(=O)[C@H](CC(C)C)NC(=O)[C@H](Cc1ccc(O)cc1)NC(=O)[C@H](CCCCN)NC(=O)[C@H](C)NC(=O)[C@H](C)NC(=O)[C@H](C)NC(=O)[C@H](CCC(N)=O)NC(=O)[C@H](CCCCN)NC(=O)[C@H](CCCNC(=N)N)NC(=O)[C@H](CC(C)C)NC(=O)[C@H](CCCN)NC(=O)[C@@H](NC(=O)[C@H](Cc1ccc(O)cc1)NC(=O)[C@H](CC(N)=O)NC(=O)[C@H](CC(=O)O)NC(=O)[C@@H](NC(=O)[C@H](Cc1ccccc1)NC(=O)[C@H](CC(C)C)NC(=O)[C@H](C)NC(=O)[C@H](CC(=O)O)NC(=O)[C@H](CO)NC(=O)[C@H](Cc1c[nH]cn1)NC(C)=O)[C@@H](C)O)[C@@H](C)O)[C@@H](C)O)C(C)C)[C@@H](C)O)C(N)=O) [Ac--(SEQ ID NO: 8)--NH2] |  | 0.28 |
| Ac--[p-F--Phe^6, Lys^12, Nle^17, Ala^19, Val^26, Thr^28, Gly^29,30, Cys(Acm)^31 ]--VIP (Ac-HSDAV[Phe(4-F)]TDNYTKLRKQ[Nle]AAKKYLNSVLTGG[Cys(Acm)]-NH2; SMILES CCCC[C@H](NC(=O)[C@H](CCC(N)=O)NC(=O)[C@H](CCCCN)NC(=O)[C@H](CCCNC(=N)N)NC(=O)[C@H](CC(C)C)NC(=O)[C@H](CCCCN)NC(=O)[C@@H](NC(=O)[C@H](Cc1ccc(O)cc1)NC(=O)[C@H](CC(N)=O)NC(=O)[C@H](CC(=O)O)NC(=O)[C@@H](NC(=O)[C@H](Cc1ccc(F)cc1)NC(=O)[C@@H](NC(=O)[C@H](C)NC(=O)[C@H](CC(=O)O)NC(=O)[C@H](CO)NC(=O)[C@H](Cc1c[nH]cn1)NC(C)=O)C(C)C)[C@@H](C)O)[C@@H](C)O)C(=O)N[C@@H](C)C(=O)N[C@@H](C)C(=O)N[C@@H](CCCCN)C(=O)N[C@@H](CCCCN)C(=O)N[C@@H](Cc1ccc(O)cc1)C(=O)N[C@@H](CC(C)C)C(=O)N[C@@H](CC(N)=O)C(=O)N[C@@H](CO)C(=O)N[C@H](C(=O)N[C@@H](CC(C)C)C(=O)N[C@H](C(=O)NCC(=O)NCC(=O)N[C@@H](CSCNC(C)=O)C(N)=O)[C@@H](C)O)C(C)C) [Ac--(SEQ ID NO: 76)--NH2] |  | 017 |

— patent US5234907A, “Synthetic vasoactive intestinal peptide analogs” (Hoffmann-La Roche Inc., priority 1991, dated 1993)
